Measurements published in US20140088066A1, “PLATINUM COMPOUNDS, COMPOSITIONS AND METHODS FOR THE TREATMENT OF CANCER” (Blend Therapeutics, priority 2012, published 2014).
Read-outs that look alike come from different tables or passages of the source.

Legend:
[1] = physchem
Method: Nanoparticle formulation of compound of Formula XVI. […] (cold) or at 20-25° C. (warm) and stored refrigerated or frozen with 10% sucrose.

[2] = physchem; remark: listed apart in the source
[3] = Aqueous solubility

Row | aqueous solubility [3] [mg/mL] | Molecule | saturated solubility in ethyl acetate (EA) [1] | solubility ([1]; organic solvent or mixture) [µg/mL] | solubility [2] [µg/mL]
1 |  | CCCCCCCCCCCCCCCCCC(=O)[O][Pt]([NH2])([NH2])[n+]1cc2ccccc2c2ccccc21 [Compound 27, phenantriplatin (stearate) nitrate] | low | 1500 | < 100
2 | 5 | phenanthriplatin [phenantriplatin] |  |  | 
